A short description of series [1]: Plasma pharmacokinetics of oral paclitaxel 120 mg/m2 combined with 15 mg kg-1 cyclosporin A in patients (previous study at the Institute). The note with it: for mean AUCt of paclitaxel metabolite: after oral paclitaxel + CsA, n = 3, mean SD, not published before. The format is in vivo, human. The source says: Furthermore, oral administration may enable development of chronic treatment schedules resulting in sustained plasma concentrations above a pharmacological relevant threshold level. […] PATIENTS AND METHODS Patient population Patients with a histologically confirmed cancer refractory to current therapies were eligible for the study. Previous radiotherapy or chemotherapy other than taxoid therapy was allowed, provided that the last treatment was at least four weeks prior to study entry and any resulting toxicities were resolved. […] Patients were not eligible if they suffered from uncontrolled infec- tious disease, neurologic disease, bowel obstruction or sympto- matic brain metastases. Other exclusion criteria were concomitant use of known P-gp inhibitors and chronic use of H2-receptor antagonists or proton pump inhibitors. The study protocol was approved by the Medical Ethics Committee of the Institute and all patients gave written informed consent. […] The oral and i.v. course were randomized. […] Patient evaluation Pretreatment evaluation included a complete medical history and complete physical examination. Before each course, an interim history including concomitant medications taken, toxicities and performance status were registered and a physical examination was performed. Haematology was checked twice weekly after course 1 and 2 and weekly after subsequent courses. Blood chemistries including liver and renal function, serum electrolytes, total protein and albumin and glucose levels were checked weekly. All toxicities observed were graded according to the National Cancer Institute Common Toxicity Criteria (NCI CTC) (National Cancer Institute, 1988). Dose-limiting toxicities (DLT) were defined as grade 4 granulocytopenia of a duration of > 5 days, grade 4 thrombocytopenia of any duration or any grade 3/4 non- haematological toxicity except untreated nausea and vomiting. Tumour measurements were performed every other cycle, but initially after the first 2 i.v. courses. Responses were evaluated according to the WHO criteria (World Health Organization, 1979). Sample collection and analysis Blood samples for pharmacokinetic analyses were collected during course 1 and course 2. […] Blood samples were centrifuged, plasma was separated and samples were immediately stored at -20C until analysis. […] Blood samples were centrifuged at 4C, plasma was separated and samples were imme- diately stored at -20C until analysis. […] Pharmacokinetic analysis Non-compartmental pharmacokinetic methods were applied to process the results (Gibaldi and Perrier, 1982). […] The time above the threshold concentrations of 0.05 M and 0.1 M (T > 0.05 M, T > 0.1 M) was determined using linear interpola- tion. […] Statistical analysis of the data was performed using the nonparametric Mann-Whitney U-test. […]

Series [2] can be described thus: Plasma pharmacokinetics of oral paclitaxel 120 mg/m2 combined with 1000 mg oral GF120918 in cancer patients (HPLC, non-compartmental). The note with it: for mean AUCt of paclitaxel metabolite: after oral paclitaxel 120 mg/m2 + GF120918, n = 5, mean SD. An excerpt:
(§1) Furthermore, oral administration may enable development of chronic treatment schedules resulting in sustained plasma concentrations above a pharmacological relevant threshold level. […] PATIENTS AND METHODS Patient population Patients with a histologically confirmed cancer refractory to current therapies were eligible for the study. Previous radiotherapy or chemotherapy other than taxoid therapy was allowed, provided that the last treatment was at least four weeks prior to study entry and any resulting toxicities were resolved. […] Patients were not eligible if they suffered from uncontrolled infec- tious disease, neurologic disease, bowel obstruction or sympto- matic brain metastases. Other exclusion criteria were concomitant use of known P-gp inhibitors and chronic use of H2-receptor antagonists or proton pump inhibitors. The study protocol was approved by the Medical Ethics Committee of the Institute and all patients gave written informed consent. […] The oral and i.v. course were randomized. […] Patient evaluation Pretreatment evaluation included a complete medical history and complete physical examination. Before each course, an interim history including concomitant medications taken, toxicities and performance status were registered and a physical examination was performed. Haematology was checked twice weekly after course 1 and 2 and weekly after subsequent courses. Blood chemistries including liver and renal function, serum electrolytes, total protein and albumin and glucose levels were checked weekly. All toxicities observed were graded according to the National Cancer Institute Common Toxicity Criteria (NCI CTC) (National Cancer Institute, 1988). Dose-limiting toxicities (DLT) were defined as grade 4 granulocytopenia of a duration of > 5 days, grade 4 thrombocytopenia of any duration or any grade 3/4 non- haematological toxicity except untreated nausea and vomiting. Tumour measurements were performed every other cycle, but initially after the first 2 i.v. courses. Responses were evaluated according to the WHO criteria (World Health Organization, 1979). Sample collection and analysis Blood samples for pharmacokinetic analyses were collected during course 1 and course 2. […] Blood samples were centrifuged, plasma was separated and samples were immediately stored at -20C until analysis. […] Blood samples were centrifuged at 4C, plasma was separated and samples were imme- diately stored at -20C until analysis. […] Pharmacokinetic analysis Non-compartmental pharmacokinetic methods were applied to process the results (Gibaldi and Perrier, 1982). […] The time above the threshold concentrations of 0.05 M and 0.1 M (T > 0.05 M, T > 0.1 M) was determined using linear interpola- tion. […] Statistical analysis of the data was performed using the nonparametric Mann-Whitney U-test. The a priori level of signifi- cance was P = 0.05.

Series [3] in a line: Plasma pharmacokinetics of GF120918 after a single 1000 mg oral dose in cancer patients (HPLC). The class given is in vivo, human. The note with it: 1000 mg oral GF120918; mean SD. The source says:
(§2) Furthermore, oral administration may enable development of chronic treatment schedules resulting in sustained plasma concentrations above a pharmacological relevant threshold level. […] PATIENTS AND METHODS Patient population Patients with a histologically confirmed cancer refractory to current therapies were eligible for the study. Previous radiotherapy or chemotherapy other than taxoid therapy was allowed, provided that the last treatment was at least four weeks prior to study entry and any resulting toxicities were resolved. […] Patients were not eligible if they suffered from uncontrolled infec- tious disease, neurologic disease, bowel obstruction or sympto- matic brain metastases. Other exclusion criteria were concomitant use of known P-gp inhibitors and chronic use of H2-receptor antagonists or proton pump inhibitors. The study protocol was approved by the Medical Ethics Committee of the Institute and all patients gave written informed consent. […] The oral and i.v. course were randomized. […] Patient evaluation Pretreatment evaluation included a complete medical history and complete physical examination. […] Responses were evaluated according to the WHO criteria (World Health Organization, 1979). […] The time above the threshold concentrations of 0.05 M and 0.1 M (T > 0.05 M, T > 0.1 M) was determined using linear interpola- tion. […]

The subject of the next series is P-gp. On the set-up: method as in Hyafil et al, 1993. Particulars: ref Hyafil et al, 1993; cited from earlier work.
On the set-up of series [4]: method as in Malingre et al, 2000. Particulars: ref Malingre et al, 2000, cited from earlier work.
The conditions of series [5]: cited from earlier work.
Series [6] has as its system histologically confirmed cancer refractory to current therapies. As to the kind of experiment: Tumour response according to WHO criteria. The class given is in vivo, human. Particulars: six patients; one oral course + GF120918, subsequent i.v. paclitaxel courses.
Description: as §2

The nature of series [7]: Toxicity in patients graded by NCI Common Toxicity Criteria. Particulars: one course oral paclitaxel 120 mg/m2 + 1000 mg GF120918.
Description: as §2

A short description of series [8]: Plasma pharmacokinetics of i.v. paclitaxel 175 mg/m2 as 3-hour infusion in cancer patients (limited sampling model). The class given is in vivo, human. The note with it: for AUC: human, plasma, iv.
Description: as §1

Where [9] appears, read: individual patients 1-6, oral 120 mg/m2 + GF120918 1000 mg.

“And” between values parts separate entries of the source, which are not always exact repeats. Equal entries are not always repeated. “Also recorded” adds a separate entry of the source. Some results are limits rather than exact numbers.

Regarding `CC(=O)O[C@H]1C(=O)[C@@]2(C)[C@H]([C@H](OC(=O)c3ccccc3)[C@]3(O)C[C@H](OC(=O)[C@H](O)[C@@H](NC(=O)c4ccccc4)c4ccc(O)cc4)C(C)=C1C3(C)C)[C@]1(OC(C)=O)CO[C@@H]1C[C@@H]2O` [3p-hydroxypaclitaxel], the mean AUCt of paclitaxel metabolite in [1] was determined as 0.48 µM·h; in series [2] it was 0.36 µM·h.

For `CC(=O)O[C@H]1C(=O)[C@@]2(C)[C@H]([C@H](OC(=O)c3ccccc3)[C@]3(O)C[C@H](OC(=O)[C@H](O)[C@@H](NC(=O)c4ccccc4)c4ccc(O)cc4)C(C)=C1C3(C)C)[C@]1(OC(C)=O)CO[C@@H]1[C@@H](O)[C@@H]2O` [6,3p-dihydroxypaclitaxel], the mean AUCt of paclitaxel metabolite in [1] stood at 0.88 µM·h; in series [2], 0.24 µM·h.

On to `CC(=O)O[C@H]1C(=O)[C@@]2(C)[C@H]([C@H](OC(=O)c3ccccc3)[C@]3(O)C[C@H](OC(=O)[C@H](O)[C@@H](NC(=O)c4ccccc4)c4ccccc4)C(C)=C1C3(C)C)[C@]1(OC(C)=O)CO[C@@H]1[C@@H](O)[C@@H]2O` [6-hydroxypaclitaxel], for which the figures for the mean AUCt of paclitaxel metabolite in series [1] and in [2] were 1.69 µM·h and 0.4 µM·h, respectively. The “AUCt ratio 6-hydroxypaclitaxel/3p-hydroxypaclitaxel” value in series [1] (oral paclitaxel + CsA (1.69/0.48)) is reported as 3.5; in series [2] (oral paclitaxel + GF120918 (0.40/0.36)), 1.1.

On to `COc1cc2c(cc1OC)CN(CCc1ccc(NC(=O)c3cccc4c(=O)c5cccc(OC)c5[nH]c34)cc1)CC2` [GF120918], for which, in series [3], the “mean maximum concentration of GF120918” value is on record as 434 267 ng ml-1. For the same compound, the “concentration at which active in in vitro models of P-gp inhibition” value with P-gp is “around 20 nM”.

As for `CC(=O)O[C@H]1C(=O)[C@@]2(C)[C@H]([C@H](OC(=O)c3ccccc3)[C@]3(O)C[C@H](OC(=O)[C@H](O)[C@@H](NC(=O)c4ccccc4)c4ccccc4)C(C)=C1C3(C)C)[C@]1(OC(C)=O)CO[C@@H]1C[C@@H]2O` [paclitaxel], the “mean AUC of paclitaxel” value in series [4] (oral paclitaxel 120 mg/m2 + CsA, previously performed study, mean ± SD) is 2.55 ± 2.29 µM·h. For the same compound, the peak concentration (Cmax) (in general, the maximum level reached in the sampled fluid or tissue) in series [4] (read-out: Cmax, oral paclitaxel, oral 120 mg/m2 + 15 mg kg-1 cyclosporin A, n = 3, mean SD) was 310 nM. Besides, in series [5] (background statement, no P-gp blocker, no reference given), the “oral bioavailability of paclitaxel” value is given as below 10%. Besides, in series [5] (cancer patients, oral paclitaxel + CsA, ref Meerum Terwogt et al, 1998, 1999), the “increase in oral bioavailability of paclitaxel by co-administration of CsA” value is listed as “at least 7 fold”. In addition, the “bioavailability of single agent oral paclitaxel” value in series [5] (oral 60 mg/m2 without P-gp blocker, vs i.v. 175 mg/m2, ref Meerum Terwogt et al, 1998, 1999) is 4%. In series [5] (using i.v. paclitaxel data at 100 mg/m2 and 125 mg/m2 (Huizing et al, 1997), ref Meerum Terwogt et al, 1999), the “apparent bioavailability of oral paclitaxel as a single agent” value is listed as 6%. Besides, in [6], the tumour responses entry is given as “no tumour responses were observed”. Also, in series [7], the “tolerability of the oral combination of paclitaxel with GF120918” value is “well tolerated; also recorded: very well tolerated”. Besides, the area under the curve (AUC) (commonly the area under the concentration-time curve, a measure of exposure) in [8] (175 mg/m2, AUC, i.v. paclitaxel, individual patients 1-6, 175 mg/m2, 3-hour infusion) was 18.6 µM·h; in series [8] (175 mg/m2, AUC, i.v. paclitaxel, mean SD, n = 6, 175 mg/m2, 3-hour infusion), 15.9 µM·h; in series [8] (175 mg/m2, mean AUC of paclitaxel, i.v. paclitaxel 175 mg/m2, 3-hour infusion, mean ± SD), 15.9 µM·h. The “T > 0.1 µM, i.v. paclitaxel” value in series [8] (individual patients 1-6, 175 mg/m2, 3-hour infusion) was 22.3 h and 12.1 h and 20.9 h and 13.8 h and 16.6 h and 13.9 h; in [8] (mean, n = 6 (SD 4.2 printed in separate line), 175 mg/m2, 3-hour infusion), 16.6 h. In addition, the “T > 0.1 µM, oral paclitaxel (time above 0.1 µM)” value in [2] (setting [9]) is 8.8 h and 15.3 h and 9.6 h and 2.6 h and 4.2 h and 4.3 h. For the same compound, the “T > 0.05 M, oral paclitaxel (time above 0.05 M)” value in series [2] (setting [9]) is 15.1 h and 25.0 h and 23.9 h and 3.9 h and 6.1 h and 6.7 h.
